Consider three molecules from patent publication US5495032A, “Process for producing 7-(substituted)-8-(substituted-9-[(substituted glycyl)amido]-6-demethyl-6-deoxytetracyclines” (priority 1994, dated 1996).

What all share (assay type): cell-based
Experiment [1] relates to tetracycline resistant strains containing the tetM resistance determinant. Nature of the experiment: in vitro antibacterial evaluation, tetM strains. Particulars: S. aureus UBMS 88-5, 90-1 and 90-2, E. coli UBMS 89-1 and 90-4.
A further experiment deals with susceptible strains. The experiment is described as follows: in vitro antibacterial evaluation, susceptible strains. Particulars: vs minocycline.
A further experiment deals with S. aureus UBMS 88-4. The experiment is described as follows: MIC, agar dilution method. Particulars: Staphylococcus aureus, UBMS884, 18 hours at 35° C., read-out: MIC. A general note: In agar dilution the substance is mixed into plates at graded concentrations.
For the next experiment, the system named is S. mariescens FPOR 8733. The experiment is described as follows: MIC, agar dilution method. Particulars: 18 h, 18 hours at 35° C.
For a further experiment, the system named is S. aureus ROSE (MP). The experiment is described as follows: MIC, agar dilution method. Conditions: 18 hours at 35° C.
A further experiment deals with Enterococcus 12201. Nature of the experiment: MIC, agar dilution method. Conditions: 18 hours at 35° C.
The next experiment relates to E. coli #311 (MP). Nature of the experiment: MIC, agar dilution method. Particulars: Escherichia coli, 18 hours at 35° C., read-out: MIC.
The test system of the next experiment is S. aureus SMITH (MP). Nature of the experiment: MIC, agar dilution method. Conditions: 18 hours at 35° C.
In another experiment the test system is E. coli BAJ9003 IMP MUT. The experiment is described as follows: microbe, parasite or virus in culture. Conditions: 18 hours at 35° C.
The test system of another experiment is E. coli UBMS 89-1 Tet M. The experiment is described as follows: microbe, parasite or virus in culture. Conditions: Escherichia coli, UBMS891TETM, 18 h, 18 hours at 35° C.
The test system of experiment [2] is E. coli MC 4100 TNIOC Tet B. The experiment is described as follows: microbe, parasite or virus in culture. Particulars: Escherichia coli, 18 h, 18 hours at 35° C.
The next experiment relates to S. aureus IVES 2943. Nature of the experiment: MIC, agar dilution method. Particulars: Staphylococcus aureus.
A further experiment deals with E. coli ATCC 25922. Nature of the experiment: MIC, agar dilution method. Particulars: Escherichia coli, ATCC25922, 18 hours at 35° C., read-out: MIC.
The subject of a further experiment is S. aureus NEMC 8769. The experiment is described as follows: MIC, agar dilution method. Conditions: Staphylococcus aureus, NEMC8769, 18 h.
In experiment [3] the test system is S. aureus UBMS 88-7 Tet K. Nature of the experiment: microbe, parasite or virus in culture. Particulars: 18 hours at 35° C.
The next experiment relates to E. coli J3272 Tet D. Nature of the experiment: microbe, parasite or virus in culture. Particulars: Escherichia coli, J3272TETD, 18 h.
The test system of the next experiment is E. coli UBMS 88-1 Tet B. Nature of the experiment: microbe, parasite or virus in culture. Conditions: Escherichia coli, UBMS881TETB, 18 h, 18 hours at 35° C.
A further experiment relates to S. aureus IVES 1 983. The experiment is described as follows: MIC, agar dilution method. Particulars: Staphylococcus aureus.
The next experiment concerns E. coli PRP1 Tet A. Nature of the experiment: microbe, parasite or virus in culture. Conditions: Escherichia coli, PRP1TETA, 18 h, 18 hours at 35° C.
Experiment [4] relates to Ps. acruginosa ATCC 27853. The experiment is described as follows: MIC, agar dilution method.
Experiment [5] has as its system S. hemolyticus AVHAH 88-3. Nature of the experiment: MIC, agar dilution method. Conditions: Streptococcus pyogenes, AVHAH883, 18 h, 18 hours at 35° C.
The test system of experiment [6] is X. maltophilia NEMC 87210. The experiment is described as follows: MIC, agar dilution method. Particulars: Stenotrophomonas maltophilia, NEMC87210, 18 h, 18 hours at 35° C.
Experiment [7] deals with S. aureus UBMS 90-1 Tet M. The experiment is described as follows: microbe, parasite or virus in culture. Particulars: 18 hours at 35° C.
For a further experiment, the system named is E. coli UBMS 90-5 sens. The experiment is described as follows: MIC, agar dilution method. Conditions: Escherichia coli, UBMS905SENS, 18 hours at 35° C., read-out: MIC.
The next experiment deals with E. coli J3272 Tet C. Nature of the experiment: microbe, parasite or virus in culture. Conditions: Escherichia coli, J3272TETC, 18 h.
For a further experiment, the system named is E. coli UBMS 90-4 Tet M. Nature of the experiment: microbe, parasite or virus in culture. Conditions: Escherichia coli, UBMS904TETM, 18 h, 18 hours at 35° C.
In a further experiment the test system is E. faecalis ATCC 29212. The experiment is described as follows: MIC, agar dilution method. Particulars: Enterococcus faecalis.
The subject of another experiment is E. coli J3272 Tet sens. Nature of the experiment: MIC, agar dilution method. Particulars: Escherichia coli, J3272TETSENS, 18 hours at 35° C.
Experiment [8] deals with E. coli UBMS 89-2 Tet sens. Nature of the experiment: MIC, agar dilution method. Conditions: Escherichia coli, UBMS892TETSENS, 18 h, 18 hours at 35° C., read-out: MIC.
For a further experiment, the system named is E. coli J2175. The experiment is described as follows: MIC, agar dilution method. Particulars: Escherichia coli, 18 hours at 35° C., read-out: MIC.
Experiment [9] has as its system S. aureus UBMS 90-2 Tet M. Nature of the experiment: microbe, parasite or virus in culture. Particulars: Staphylococcus aureus, UBMS902TETM, 18 h, 18 hours at 35° C.
The subject of the next experiment is S. aureus UBMS 90-3. Nature of the experiment: MIC, agar dilution method. Particulars: Staphylococcus aureus.
The test system of experiment [10] is S. aureus UBMS 88-5 Tet M. The experiment is described as follows: microbe, parasite or virus in culture. Particulars: Staphylococcus aureus, UBMS885TETM, 18 h.
Another experiment deals with S. aureus ATCC 29213. The experiment is described as follows: MIC, agar dilution method. Conditions: 18 hours at 35° C.
The test system of experiment [11] is E. coli MC 4100 Tet sens. The experiment is described as follows: MIC, agar dilution method. Particulars: Escherichia coli, 18 hours at 35° C., read-out: MIC.
The mark [12] stands for this setting: Staphylococcus aureus, read-out: MIC.

Structures are written as SMILES. Structures can show the parent of a compound that is named as a salt. Where two headings read alike, the source gives them in different places. Some results are limits rather than exact numbers.

Take `CN(C)CC(=O)Nc1c(Cl)cc2c(c1O)C(=O)C1=C(O)[C@]3(O)C(=O)C(C(N)=O)=C(O)[C@@H](N(C)C)C3CC1C2` (stereo partly drawn) [8-chloro-9-(N,N-dimethylglycylamido)-6-demethyl-6-deoxytetracycline]: the “in vitro activity against tetracycline resistant strains containing the tetM resistance determinant” value in experiment [1] is listed as “good in vitro activity”. For the same molecule, the “effectiveness against susceptible strains compared with minocycline” value in the experiment with susceptible strains is reported as “equally as effective as minocycline”.

Turning to `CN(C)CC(=O)Nc1c(Cl)cc2c(c1O)C(=O)C1=C(O)[C@]3(O)C(=O)C(C(N)=O)=C(O)[C@@H](N(C)C)C3CC1C2` (stereo partly drawn) [A, [4S-(4α,12aα)]-8-Chloro-4-(dimethylamino)-9-[[(dimethylamino)acetyl]amino]-1,4,4a,5,5a,6,11,12a-octahydro-3,10,12,12a-tetrahydroxy-1,11-dioxo-2-naphthacenecarboxamide disulfate], the MIC in the experiment on S. aureus UBMS 88-4 amounted to 0.12 µg/mL; with S. mariescens FPOR 8733, 16 µg/mL; against S. aureus ROSE (MP) it was 16 µg/mL; against Enterococcus 12201, 0.25 µg/mL; with E. coli #311 (MP), 0.5 µg/mL; in the experiment on S. aureus SMITH (MP) it was 0.25 µg/mL. The MIC with E. coli BAJ9003 IMP MUT was found to be 0.25 µg/mL; against E. coli UBMS 89-1 Tet M it was 0.5 µg/mL; in [2], 2 µg/mL; with S. aureus IVES 2943 (IVES2943, 18 h), 4 µg/mL; in the experiment with E. coli ATCC 25922 it was 0.5 µg/mL; against S. aureus NEMC 8769 (S. aureus NEMC 8769, 18 hours at 35° C.), 0.06 µg/mL. The MIC in experiment [3] is 2 µg/mL; with E. coli J3272 Tet D, 0.5 µg/mL; against E. coli UBMS 88-1 Tet B, 2 µg/mL; against S. aureus IVES 1 983 (IVES1983, 18 h), 4 µg/mL; against E. coli PRP1 Tet A, 4 µg/mL; in experiment [4] (Ps. acruginosa ATCC 27853, 18 hours at 35° C., read-out: MIC), above 32 µg/mL. The MIC in experiment [5] worked out at 1 µg/mL; in experiment [6], 2 µg/mL; in experiment [7] it was 0.5 µg/mL; in the experiment on E. coli UBMS 90-5 sens, 1 µg/mL; against E. coli J3272 Tet C, 8 µg/mL; in the experiment with E. coli UBMS 90-4 Tet M, 1 µg/mL. For the same molecule, the MIC with E. faecalis ATCC 29212 (ATCC29212, 18 hours at 35° C., read-out: MIC) was found to be 0.12 µg/mL; with E. coli J3272 Tet sens it was 1 µg/mL; in [8], 2 µg/mL; with E. coli J2175 it was 1 µg/mL; in experiment [9] it was 0.5 µg/mL; with S. aureus UBMS 90-3 (UBMS903, S. aureus UBMS 90-3, 18 hours at 35° C., read-out: MIC) it was 0.12 µg/mL. Besides, the MIC in experiment [10] is 0.25 µg/mL; with S. aureus ATCC 29213 it was 0.03 µg/mL.

Regarding `CNCC(=O)Nc1c(Cl)cc2c(c1O)C(=O)C1=C(O)[C@]3(O)C(=O)C(C(N)=O)=C(O)[C@@H](N(C)C)C3CC1C2` (stereo partly drawn) [I, [4S-(4α,12aα)]-8-Chloro-4-(dimethylamino)-1,4,4a,5,5a,6,11,12a-octahydro-3, 10,12,12a-tetrahydroxy-1,11-dioxo-9-[[(methylamino)acetyl]amino]-2-naphthacenecarboxamide dihydrochloride], the MIC with S. aureus UBMS 88-4 was 0.5 µg/mL; in the experiment with S. mariescens FPOR 8733, 16 µg/mL; in the experiment on S. aureus ROSE (MP) (setting [12]) it was above 32 µg/mL; in the experiment on Enterococcus 12201 (Enterococcus, 12201, 18 h), 0.5 µg/mL; in the experiment with E. coli #311 (MP) it was 2 µg/mL; with S. aureus SMITH (MP) (setting [12]), 0.5 µg/mL. The MIC is 0.25 µg/mL in experiment [11]; 0.25 µg/mL in the experiment with E. coli BAJ9003 IMP MUT (Escherichia coli, BAJ9003IMPMUT, 18 h); 2 µg/mL in the experiment on E. coli UBMS 89-1 Tet M; 1 µg/mL in experiment [2]; above 32 µg/mL in the experiment on S. aureus IVES 2943 (IVES2943, S. aureus IVES 2943, 18 hours at 35° C., read-out: MIC); 1 µg/mL with E. coli ATCC 25922. Besides, the MIC with S. aureus NEMC 8769 was 0.5 µg/mL; in experiment [3] (Staphylococcus aureus, UBMS887TETK, 18 h), above 32 µg/mL; against E. coli J3272 Tet D it was 1 µg/mL; against E. coli UBMS 88-1 Tet B, 1 µg/mL; with S. aureus IVES 1 983 (IVES1983, S. aureus IVES 1 983, 18 hours at 35° C., read-out: MIC), above 32 µg/mL; with E. coli PRP1 Tet A, 16 µg/mL. The MIC was determined as 16 µg/mL in [4] (18 h); 2 µg/mL in experiment [5]; 16 µg/mL in [6]; 0.5 µg/mL in [7] (Staphylococcus aureus, UBMS901TETM, 18 h); 1 µg/mL with E. coli UBMS 90-5 sens; 16 µg/mL against E. coli J3272 Tet C. Further, the MIC was determined as 1 µg/mL in the experiment on E. coli UBMS 90-4 Tet M; 0.25 µg/mL with E. faecalis ATCC 29212 (ATCC29212, 18 h, 18 hours at 35° C.); 2 µg/mL in experiment [8]; 1 µg/mL in the experiment with E. coli J2175; 0.5 µg/mL in [9]; 0.5 µg/mL in the experiment on S. aureus UBMS 90-3 (UBMS903, 18 h). Also, the MIC in experiment [10] turned out to be 0.5 µg/mL; against S. aureus ATCC 29213 (Staphylococcus aureus, ATCC29213, 18 h), 0.5 µg/mL.
